{"source": "patent US12605351B2", "about": "“Method for producing a composition comprising a 3-O-p-coumaroyl ester of tormentic acid from a plant cell culture, applications thereof as antiparasitic agent for the treatment of trypanosomiasis” (LUXEMBOURG INSTITUTE OF SCIENCE AND TECHNOLOGY, priority 2019, dated 2026)", "key": {"[1]": {"tested_on": "Trypanosoma brucei brucei", "details": "review Isah et al. 2016; cited from earlier work"}, "Trypanosoma cruzi": {"tested_on": "Trypanosoma cruzi", "details": "review Isah et al. 2016; cited from earlier work"}, "MCR-5 cells": {"tested_on": "MCR-5 cells", "details": "cited from earlier work"}, "[2]": {"tested_on": "Trypanosoma brucei brucei bloodstream forms (strain 427)", "test": "In vitro antitrypanosomal activity on Tbb BSF", "assay_type": "cell-based", "details": "for IC50: Trypanosoma brucei, Tbb bloodstream forms strain 427, Table 3", "experimental": "Antiparasitic activities were evaluated in vitro on Trypanosoma brucei brucei bloodstream forms (strain 427) (Tbb BSF). Tbb BSF were cultured in vitro at 37° C. with 5% CO2 in HMI9 medium containing 10% heat-inactivated fetal bovine serum, […] ([…]) and L-cysteine ([…]).\n(§1) In vitro tests were performed as previously described by Hoet S. et al. (Planta Med., 2004, 70, 407-413, doi:10.1055/s-2004-818967). Suramine (a commercial anti-trypanosomal drug) and camptothecin were used as positive controls. Stock solutions of compounds to be tested were prepared at a concentration of 10 mg/mL in DMSO. The solutions were further diluted in medium (described in 1.1) to give 0.1 mg/mL stock solutions. Extracts and compounds were tested in eight serial three-fold dilutions (final concentration range: 50-0.02 mg/L) in 96-well microliter plates. All tests were performed at least in duplicate."}, "[3]": {"tested_on": "Human normal fibroblast cell line (WI-38)", "test": "cells", "assay_type": "cell-based", "details": "cytotoxicity, WI-38 human fibroblasts, Table 3", "experimental": "The cytotoxicity of tested compounds was evaluated in parallel on a Human normal fibroblast cell line (WI-38) cultivated in a humidified atmosphere with 5% CO2 at 37° C. Human normal fibroblast cell line (WI-38) was cultivated in DMEM medium (Life Technologies) containing 4 mM L-glutamine, 1 mM sodium pyruvate supplemented with 10% fetal bovine serum (Sigma) and penicillin-streptomycin (100 UI/mL).\nas §1, with “Suramine” for “In vitro tests were performed as previously described by Hoet S. et al. (Planta Med., 2004, 70, 407-413, doi:10.1055/s-2004-818967). Suramine”"}, "[4]": {"test": "In vivo acute toxicity test (highest tolerated dose)", "set-up": "species or system NMRI mice", "excerpt": "(§2) NMRI mice (6-8 weeks of age) obtained from Envigo Laboratories (The Netherlands) were used. All in vivo experiments performed were approved by the Ethical Committee for animals use at the Health Sciences Sector of the Catholic University of Louvain (2017/UCL/MD/017).\nThe assessment of the highest tolerated dose was based on a DNDi protocol by Loset J.-R. et al. (V. Drug Screening for Kinetoplastids Diseases. A Training Manual for Screening in Neglected Diseases-DNDi, 2009) and adapted by Beaufay C. et al. (Malar J., 2017, 16, doi:10.1186/s12936-017-2054-y). Briefly, 3-O-cis/trans-p-coumaroyltormentic acid isolated from fractions F-F9 obtained from a callus of Malus domestica Cox cultivar of example 1 above was given intraperitoneally every 2 hours to 2 mice using increasing doses: 10-15-25-50 mg/kg from stock solutions of 10 mg/mL. Mice were controlled for any health problem symptoms or behavioral changes and monitored for weight and hematocrit after each injection and every day during 48 h after administration. Main organs (heart, liver, spleen, lung and kidney) of treated mice were observed and weighed wet during autopsy. Control group received the vehicle, distilled water with 10% of tween 80-ethanol (7:3). The total injected dose was finally recorded and will ensure the non-toxicity of in vivo anti-trypanosomal test."}, "[5]": {"tested_on": "Trypanosoma brucei brucei", "test": "In vivo anti-trypanosomal activity in infected mice", "set-up": "species or system NMRI mice", "excerpt": "as §2\nMice were randomly divided into 6 mice per group for 3-O-cis/trans-p-coumaroyltormentic acid (mixture of cis and trans) and ursolic acid, 4 for positive control (Suramine) and 7 for the negative control, and were infested intraperitoneally with 10^4 Trypanosoma brucei brucei. All compounds were solubilized in the vehicle (water-tween 80-ethanol) and administered intraperitoneally. 3-O-cis/trans-p-coumaroyltormentic acid or ursolic acid (UA) were administered at 50 mg/kg at day 3 after infection with the parasite and then every day until day 7 post-infection. Suramine (0.5 mg/kg) was administered while vehicle was used as a negative control. From day 3 post infection, a drop of blood collected each day from mouse-tail was used to count parasitemia."}}, "note": "Like-named read-outs stand apart in the source and are kept apart here.", "data": [{"compound": "tingenin", "values": [{"measurement": "IC50 against Trypanosoma brucei brucei", "setting": "[1]", "result": "< 0.25", "unit": "µg/mL"}, {"measurement": "IC50 against Trypanosoma cruzi", "setting": "Trypanosoma cruzi", "result": "< 0.25", "unit": "µg/mL"}, {"measurement": "cytotoxicity IC50 on MCR-5 cells", "setting": "MCR-5 cells", "result": 0.45, "unit": "µg/mL"}]}, {"compound": "C[C@H]1[C@H](C)CC[C@]2(C(=O)O)CC[C@]3(C)C(=CC[C@@H]4[C@@]5(C)CC[C@H](O)C(C)(C)[C@@H]5CC[C@]43C)[C@H]12", "note": "[Ursolic acid]", "values": [{"measurement": "IC50", "setting": "[2]; read-out: Tbb (IC50 μM)", "result": "2.38 ± 0.24", "unit": "µM"}, {"measurement": "IC50", "setting": "[2]; read-out: Tbb (IC50 μg/mL)", "result": "1.08 ± 0.11", "unit": "µg/mL"}, {"measurement": "SI (Selectivity Index)", "setting": "[2]; cytotoxicity in WI38 compared to Tbb", "result": 4.8}, {"measurement": "IC50", "setting": "[3]; read-out: WI38 (IC50 μM)", "result": "11.1 ± 0.22", "unit": "µM"}, {"measurement": "IC50", "setting": "[3]; read-out: WI38 (IC50 μg/mL)", "result": "5.08 ± 0.1", "unit": "µg/mL"}, {"measurement": "total cumulative highest tolerated dose", "setting": "[4]; NMRI, mouse, in vivo, ip, 48 h", "result": 100, "unit": "mg/kg"}, {"measurement": "acute toxicity", "setting": "[4]; mice, intraperitoneally every 2 hours, 10-15-25-50 mg/kg, monitored 48 h", "result": "no acute toxic symptom"}, {"measurement": "survival of infected mice in comparison to the untreated group", "setting": "[5]; 50 mg/kg/d i.p. day 3-7 post-infection, followed to day 19", "result": "no significant difference"}, {"measurement": "parasitemia", "setting": "[5]; day 4 post-infection, 50 mg/kg/day intraperitoneally, 10^4 Tbb/mouse", "result": "did not show any effect"}, {"measurement": "survival increase", "setting": "[5]; day 12 post-infection, 50 mg/kg i.p. day 3-7", "result": 16.7, "unit": "%"}]}]}
